In ChEMBL document CHEMBL1201862, “PubChem BioAssay data set” (2004):
Activity calls are given as the source filed them.

Legend:
[1] = target: T1, Tyrosine-protein phosphatase non-receptor type 22 (Homo sapiens, UniProt Q9Y2R2); assay type: functional
T1 sequence (Q9Y2R2 whole entry): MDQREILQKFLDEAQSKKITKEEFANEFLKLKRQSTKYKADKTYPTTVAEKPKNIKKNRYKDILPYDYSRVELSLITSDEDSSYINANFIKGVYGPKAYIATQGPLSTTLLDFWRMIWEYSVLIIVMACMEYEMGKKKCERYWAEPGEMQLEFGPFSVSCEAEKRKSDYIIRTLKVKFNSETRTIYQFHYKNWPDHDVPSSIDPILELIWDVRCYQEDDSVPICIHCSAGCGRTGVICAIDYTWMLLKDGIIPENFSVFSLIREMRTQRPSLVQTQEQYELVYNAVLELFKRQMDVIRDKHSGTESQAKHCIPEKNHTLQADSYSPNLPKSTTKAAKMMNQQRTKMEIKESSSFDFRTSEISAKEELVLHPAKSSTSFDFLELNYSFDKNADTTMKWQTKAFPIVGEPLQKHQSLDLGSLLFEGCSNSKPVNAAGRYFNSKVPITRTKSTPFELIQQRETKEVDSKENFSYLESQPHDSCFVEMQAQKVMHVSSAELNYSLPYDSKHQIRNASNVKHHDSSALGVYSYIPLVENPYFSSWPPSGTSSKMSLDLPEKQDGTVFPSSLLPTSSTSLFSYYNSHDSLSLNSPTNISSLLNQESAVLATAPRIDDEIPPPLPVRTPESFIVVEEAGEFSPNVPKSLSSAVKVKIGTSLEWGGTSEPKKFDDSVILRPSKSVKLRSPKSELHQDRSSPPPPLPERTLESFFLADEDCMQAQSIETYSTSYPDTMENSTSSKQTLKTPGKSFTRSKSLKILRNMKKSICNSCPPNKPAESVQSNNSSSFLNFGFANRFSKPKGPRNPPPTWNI

[2] = target: T1, Tyrosine-protein phosphatase non-receptor type 22; assay type: functional; remark: listed apart in the source
[3] = target: T2, Tyrosine-protein phosphatase non-receptor type 7 (Homo sapiens, UniProt P35236); assay type: functional
T2 sequence (P35236 whole entry): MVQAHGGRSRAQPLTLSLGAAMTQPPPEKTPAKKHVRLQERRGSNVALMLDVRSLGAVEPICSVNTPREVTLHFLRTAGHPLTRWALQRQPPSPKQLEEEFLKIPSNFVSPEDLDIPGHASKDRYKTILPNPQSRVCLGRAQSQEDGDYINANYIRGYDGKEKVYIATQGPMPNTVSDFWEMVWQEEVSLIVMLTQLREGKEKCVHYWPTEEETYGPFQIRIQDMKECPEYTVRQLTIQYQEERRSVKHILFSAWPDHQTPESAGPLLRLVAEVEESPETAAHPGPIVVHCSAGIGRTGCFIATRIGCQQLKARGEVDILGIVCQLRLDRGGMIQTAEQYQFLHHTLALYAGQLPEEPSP

[4] = target: Intestinal-type alkaline phosphatase (Mus musculus, UniProt P24822); assay: mouse intestinal alkaline phosphatase activators, dose response, biochemical, luminescence, uHTS hits (AID 488783); assay type: functional
Sequence of Intestinal-type alkaline phosphatase (Mus musculus, UniProt P24822) (P24822 whole entry): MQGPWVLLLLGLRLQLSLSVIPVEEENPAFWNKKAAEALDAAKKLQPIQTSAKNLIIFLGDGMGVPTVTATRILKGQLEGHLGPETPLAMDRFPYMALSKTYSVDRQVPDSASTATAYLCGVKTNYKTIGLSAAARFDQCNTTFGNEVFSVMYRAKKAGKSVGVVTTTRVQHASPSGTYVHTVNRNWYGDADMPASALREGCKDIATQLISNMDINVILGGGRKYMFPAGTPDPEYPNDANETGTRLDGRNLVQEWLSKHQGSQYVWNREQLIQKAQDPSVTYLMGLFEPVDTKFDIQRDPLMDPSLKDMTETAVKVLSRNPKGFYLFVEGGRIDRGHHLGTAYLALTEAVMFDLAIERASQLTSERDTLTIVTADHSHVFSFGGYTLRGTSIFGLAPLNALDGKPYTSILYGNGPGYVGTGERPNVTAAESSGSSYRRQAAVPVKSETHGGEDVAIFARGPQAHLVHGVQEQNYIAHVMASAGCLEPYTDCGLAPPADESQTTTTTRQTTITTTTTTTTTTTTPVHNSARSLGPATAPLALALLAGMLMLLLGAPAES

[5] = target: T3, Alkaline phosphatase, tissue-nonspecific isozyme (Homo sapiens, UniProt P05186); assay: activation of tissue-nonspecific alkaline phosphatase – biochemical, TNAP isozyme, mouse IAP uHTS hits, selectivity assay for mouse IAP activator project, dose response (AID 488880); assay type: functional
T3 sequence (P05186 whole entry): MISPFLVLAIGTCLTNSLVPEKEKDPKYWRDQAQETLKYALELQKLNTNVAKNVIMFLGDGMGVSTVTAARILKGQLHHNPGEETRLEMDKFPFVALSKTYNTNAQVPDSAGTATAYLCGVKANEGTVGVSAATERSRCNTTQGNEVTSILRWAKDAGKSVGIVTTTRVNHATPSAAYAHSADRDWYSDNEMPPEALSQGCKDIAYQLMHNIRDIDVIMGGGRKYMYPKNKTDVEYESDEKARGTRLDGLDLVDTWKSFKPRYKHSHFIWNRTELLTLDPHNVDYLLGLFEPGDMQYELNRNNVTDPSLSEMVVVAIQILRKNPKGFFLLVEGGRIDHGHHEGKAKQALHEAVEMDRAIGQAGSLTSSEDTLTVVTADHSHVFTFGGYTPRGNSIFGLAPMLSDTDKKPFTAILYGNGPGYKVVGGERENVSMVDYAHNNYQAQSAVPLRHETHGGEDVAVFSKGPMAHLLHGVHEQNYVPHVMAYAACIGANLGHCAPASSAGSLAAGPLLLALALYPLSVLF

[6] = target: Intestinal-type alkaline phosphatase (Homo sapiens, UniProt P09923); assay: activation of human intestinal alkaline phosphatase – biochemical, dose response (AID 488873); assay type: functional
Sequence of Intestinal-type alkaline phosphatase (Homo sapiens, UniProt P09923) (P09923 whole entry): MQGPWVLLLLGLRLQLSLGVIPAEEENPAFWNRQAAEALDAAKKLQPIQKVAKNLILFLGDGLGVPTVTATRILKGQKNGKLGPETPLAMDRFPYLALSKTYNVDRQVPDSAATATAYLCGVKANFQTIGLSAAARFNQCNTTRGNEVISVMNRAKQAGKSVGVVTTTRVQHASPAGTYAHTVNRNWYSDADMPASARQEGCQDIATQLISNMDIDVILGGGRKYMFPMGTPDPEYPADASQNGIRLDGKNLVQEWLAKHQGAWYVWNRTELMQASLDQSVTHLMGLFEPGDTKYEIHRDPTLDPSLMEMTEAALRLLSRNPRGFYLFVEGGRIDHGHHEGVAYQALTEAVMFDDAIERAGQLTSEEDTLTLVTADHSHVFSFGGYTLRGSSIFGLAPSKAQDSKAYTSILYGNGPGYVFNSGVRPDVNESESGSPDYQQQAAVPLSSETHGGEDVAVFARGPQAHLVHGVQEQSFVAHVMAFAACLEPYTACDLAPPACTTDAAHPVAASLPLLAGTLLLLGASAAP

[7] = Luminescence Cell-Based Dose Response HTS to Identify Inhibitors of 5'UTR Stem-Loop Driven Prion Protein mRNA Translation in H4 Neuroglioblastoma Cells. [Related pubchem assays: 1827 (Project Summary), 1813 (Primary HTS)]; assay type: functional
[8] = target: T4, Sentrin-specific protease 6 (Homo sapiens, UniProt Q9GZR1); assay type: functional;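 also: Luminescence-based dose-response confirmatory assay of SENP6 inhibition, following up an ultra-high-throughput screen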
T4 sequence (Q9GZR1 whole entry): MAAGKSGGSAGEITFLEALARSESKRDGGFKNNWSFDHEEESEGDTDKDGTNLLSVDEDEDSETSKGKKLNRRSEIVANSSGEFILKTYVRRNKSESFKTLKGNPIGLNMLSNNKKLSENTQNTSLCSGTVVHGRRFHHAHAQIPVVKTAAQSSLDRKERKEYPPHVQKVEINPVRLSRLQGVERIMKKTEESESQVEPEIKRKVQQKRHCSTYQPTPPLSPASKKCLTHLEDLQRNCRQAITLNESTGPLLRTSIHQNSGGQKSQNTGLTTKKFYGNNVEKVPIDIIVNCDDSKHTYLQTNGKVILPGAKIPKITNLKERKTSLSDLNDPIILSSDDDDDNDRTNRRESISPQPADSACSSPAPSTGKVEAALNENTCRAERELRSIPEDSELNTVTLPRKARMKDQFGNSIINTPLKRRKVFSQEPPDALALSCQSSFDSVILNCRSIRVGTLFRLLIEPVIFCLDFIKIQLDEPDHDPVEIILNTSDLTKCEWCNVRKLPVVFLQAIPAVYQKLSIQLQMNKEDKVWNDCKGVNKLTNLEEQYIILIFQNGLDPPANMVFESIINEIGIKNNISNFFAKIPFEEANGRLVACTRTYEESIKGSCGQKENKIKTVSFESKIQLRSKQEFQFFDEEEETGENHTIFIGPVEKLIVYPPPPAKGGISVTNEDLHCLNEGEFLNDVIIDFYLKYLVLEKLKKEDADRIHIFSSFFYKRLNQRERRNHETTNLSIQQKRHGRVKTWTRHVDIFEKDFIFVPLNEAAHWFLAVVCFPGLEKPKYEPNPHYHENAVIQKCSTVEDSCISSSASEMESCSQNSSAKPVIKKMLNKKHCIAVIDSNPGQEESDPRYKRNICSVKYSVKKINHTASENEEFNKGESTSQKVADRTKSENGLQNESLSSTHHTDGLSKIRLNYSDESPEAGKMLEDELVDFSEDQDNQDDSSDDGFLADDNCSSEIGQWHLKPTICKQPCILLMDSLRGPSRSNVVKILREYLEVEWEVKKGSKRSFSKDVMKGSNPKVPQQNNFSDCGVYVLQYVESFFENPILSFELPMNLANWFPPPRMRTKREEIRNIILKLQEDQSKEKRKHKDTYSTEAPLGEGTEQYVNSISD

[9] = alpha-synuclein stem-loop luciferase translation blockers – H4 neuroglioma cells, luminescence, confirmation (AID 1988); assay type: functional, cell-based
INS1 = assay: INS-1E survival protection against cytokine death – cell-based, luminescence, retest, dose response (AID 449756); assay type: functional; conditions: Rattus norvegicus;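 also: cell death triggered by IL-1 beta plus TNF-alpha plus IFN-gamma mixture; protective hits raise ATP signal compared with cytokine alone wells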
[10] = target: T5, Sentrin-specific protease 8 (Homo sapiens, UniProt Q96LD8); assay type: functional;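 also: luminescence read-out of SENP8 inhibition, dose-response confirmation following an ultra-high-throughput screen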
T5 sequence (Q96LD8 whole entry): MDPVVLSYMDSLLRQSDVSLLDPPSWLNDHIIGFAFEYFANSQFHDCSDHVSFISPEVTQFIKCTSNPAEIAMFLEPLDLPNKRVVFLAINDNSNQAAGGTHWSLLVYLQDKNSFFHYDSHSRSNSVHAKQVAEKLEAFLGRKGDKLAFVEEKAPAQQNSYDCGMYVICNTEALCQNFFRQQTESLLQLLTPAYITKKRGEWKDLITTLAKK

cells [11] = assay type: functional, cell-based
[12] = DRD fibroblast viability loss – cell-based, non-viral oncogenic, luminescence, dose response (AID 1934); assay type: functional; conditions: Homo sapiens
BJ [13] = assay: cells; assay type: functional, cell-based; conditions: Homo sapiens
cells [14] = assay type: functional, cell-based; remark: listed apart in the source
[15] = target: T6, Delta-type opioid receptor (Homo sapiens, UniProt P41143); assay: HTS Image-Based Screen for Antagonists of the DOR Receptor. [Related pubchem assays (depositor defined):AID1777, AID1785, AID1786, AID2133]; assay type: functional
T6 sequence (P41143 whole entry): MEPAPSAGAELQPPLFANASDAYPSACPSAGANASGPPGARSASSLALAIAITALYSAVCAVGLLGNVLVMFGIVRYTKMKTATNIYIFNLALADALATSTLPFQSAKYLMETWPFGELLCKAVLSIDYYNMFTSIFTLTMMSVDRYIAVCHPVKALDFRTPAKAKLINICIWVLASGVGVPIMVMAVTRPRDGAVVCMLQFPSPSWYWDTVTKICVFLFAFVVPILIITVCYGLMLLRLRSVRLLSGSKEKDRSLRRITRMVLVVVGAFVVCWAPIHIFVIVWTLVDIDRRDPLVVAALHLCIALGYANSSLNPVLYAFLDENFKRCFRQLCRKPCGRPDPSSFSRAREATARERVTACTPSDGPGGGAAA

[16] = Luminescence-based dose response cell-based high throughput screening assay for cytotoxic compounds using the IEC-6 intestinal epithelial cell line. [Related pubchem assays: 1858 (Summary AID.), 1825 (Counterscreen.), 1907 (Confirmation screen.)]; assay type: functional
[17] = target: T7, Kappa-type opioid receptor (Homo sapiens, UniProt P41145); assay type: functional
T7 sequence (P41145 whole entry): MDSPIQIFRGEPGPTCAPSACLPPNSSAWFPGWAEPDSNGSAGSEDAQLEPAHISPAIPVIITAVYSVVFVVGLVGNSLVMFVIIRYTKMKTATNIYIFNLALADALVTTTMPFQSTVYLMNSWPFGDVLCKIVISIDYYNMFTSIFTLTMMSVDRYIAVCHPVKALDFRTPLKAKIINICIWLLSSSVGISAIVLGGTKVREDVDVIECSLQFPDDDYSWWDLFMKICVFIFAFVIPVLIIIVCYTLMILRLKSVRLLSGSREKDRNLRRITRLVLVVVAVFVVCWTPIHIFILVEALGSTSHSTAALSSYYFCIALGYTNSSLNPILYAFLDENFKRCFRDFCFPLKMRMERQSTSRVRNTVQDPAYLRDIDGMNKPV

BJ [18] = assay: BJ-TERT fibroblast viability loss – cell-based, RAS-independent, luminescence, dose response (AID 1933); assay type: functional; conditions: Homo sapiens
[19] = luciferase reporter signal suppression in cells – H4 neuroglioma cells, luminescence, dose response (AID 1990); assay type: functional, cell-based
[20] = target: T7, Kappa-type opioid receptor; assay type: functional; remark: listed apart in the source
Caspase-3 = target: T8, Caspase-3 (Homo sapiens, UniProt P42574); assay type: functional;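 also: Dose-response selectivity test against caspase-3 for candidate inhibitors of sentrin-specific proteases (SENPs)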
T8 sequence (P42574 whole entry): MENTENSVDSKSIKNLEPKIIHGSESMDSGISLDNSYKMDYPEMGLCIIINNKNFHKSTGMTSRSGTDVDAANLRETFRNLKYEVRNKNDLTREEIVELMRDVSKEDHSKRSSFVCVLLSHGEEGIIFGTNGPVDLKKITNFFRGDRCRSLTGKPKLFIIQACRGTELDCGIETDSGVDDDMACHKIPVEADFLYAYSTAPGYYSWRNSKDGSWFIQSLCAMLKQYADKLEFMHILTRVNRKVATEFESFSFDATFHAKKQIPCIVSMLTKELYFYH

BJ [21] = assay: BJ-TERT-LT-ST fibroblast viability loss – cell-based, RAS-independent, luminescence, dose response (AID 1935); assay type: functional; conditions: Homo sapiens;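 also: BJ fibroblasts immortalized with TERT plus LT and ST oncogenes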
Mu-type opioid receptor = Mu-type opioid receptor (Homo sapiens, UniProt P35372); assay: HTS Image-Based Screen for Agonists of the MOR Receptor. [Related pubchem assays (depositor defined):AID1777, AID1785, AID1786, AID2133]; assay type: functional;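 also: imaging of beta-arrestin GFP recruitment into spots after receptor activation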
Sequence of Mu-type opioid receptor (P35372 whole entry): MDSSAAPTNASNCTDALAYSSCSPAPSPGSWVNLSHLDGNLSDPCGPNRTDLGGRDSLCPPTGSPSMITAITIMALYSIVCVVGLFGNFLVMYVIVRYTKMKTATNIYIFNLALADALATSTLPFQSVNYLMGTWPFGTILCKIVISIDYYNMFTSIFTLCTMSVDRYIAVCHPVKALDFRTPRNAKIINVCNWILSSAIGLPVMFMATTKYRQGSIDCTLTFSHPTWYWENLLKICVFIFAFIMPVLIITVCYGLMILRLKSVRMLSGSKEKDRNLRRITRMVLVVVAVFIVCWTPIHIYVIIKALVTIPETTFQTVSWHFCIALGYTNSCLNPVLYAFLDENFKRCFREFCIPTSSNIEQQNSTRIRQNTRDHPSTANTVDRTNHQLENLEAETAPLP

[22] = target: T9, Sentrin-specific protease 7 (Homo sapiens, UniProt Q9BQF6); assay type: functional;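 also: Luminescence-based dose-response confirmation of ultra-high-throughput screening hits, measuring inhibition of SENP7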
T9 sequence (Q9BQF6 whole entry): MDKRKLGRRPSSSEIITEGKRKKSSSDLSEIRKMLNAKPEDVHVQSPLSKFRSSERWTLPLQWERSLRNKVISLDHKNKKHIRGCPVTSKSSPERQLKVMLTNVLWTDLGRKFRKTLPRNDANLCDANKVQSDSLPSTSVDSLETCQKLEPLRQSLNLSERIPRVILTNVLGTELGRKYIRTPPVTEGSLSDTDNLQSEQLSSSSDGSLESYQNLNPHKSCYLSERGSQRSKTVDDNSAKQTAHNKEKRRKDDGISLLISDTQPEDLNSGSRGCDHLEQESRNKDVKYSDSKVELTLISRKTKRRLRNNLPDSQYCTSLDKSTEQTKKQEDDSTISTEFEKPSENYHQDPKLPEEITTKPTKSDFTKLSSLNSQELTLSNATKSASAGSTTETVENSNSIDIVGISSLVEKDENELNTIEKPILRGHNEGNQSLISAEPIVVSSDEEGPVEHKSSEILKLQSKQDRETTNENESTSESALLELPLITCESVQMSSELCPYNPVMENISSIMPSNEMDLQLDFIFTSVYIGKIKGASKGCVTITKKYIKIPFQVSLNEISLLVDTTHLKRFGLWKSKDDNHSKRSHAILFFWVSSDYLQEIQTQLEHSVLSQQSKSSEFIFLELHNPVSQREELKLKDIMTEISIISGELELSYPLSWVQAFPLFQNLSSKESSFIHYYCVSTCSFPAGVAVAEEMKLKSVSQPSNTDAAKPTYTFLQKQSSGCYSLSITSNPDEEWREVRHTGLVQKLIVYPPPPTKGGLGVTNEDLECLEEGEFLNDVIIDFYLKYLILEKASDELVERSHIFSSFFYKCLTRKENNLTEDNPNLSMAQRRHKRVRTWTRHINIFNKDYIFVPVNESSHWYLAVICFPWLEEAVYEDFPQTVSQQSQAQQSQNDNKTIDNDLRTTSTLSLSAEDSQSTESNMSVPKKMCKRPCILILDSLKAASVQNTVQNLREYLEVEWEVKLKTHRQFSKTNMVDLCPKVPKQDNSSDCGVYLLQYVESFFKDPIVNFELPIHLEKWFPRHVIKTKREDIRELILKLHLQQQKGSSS

[23] = target: T6, Delta-type opioid receptor; assay: HTS Image-Based Screen for Agonists of the DOR Receptor. [Related pubchem assays (depositor defined):AID1777, AID1786, AID2133]; assay type: functional
Beta-galactosidase = Beta-galactosidase (Escherichia coli, UniProt Q8VNN2); assay type: functional
Sequence of Beta-galactosidase (Q8VNN2 whole entry): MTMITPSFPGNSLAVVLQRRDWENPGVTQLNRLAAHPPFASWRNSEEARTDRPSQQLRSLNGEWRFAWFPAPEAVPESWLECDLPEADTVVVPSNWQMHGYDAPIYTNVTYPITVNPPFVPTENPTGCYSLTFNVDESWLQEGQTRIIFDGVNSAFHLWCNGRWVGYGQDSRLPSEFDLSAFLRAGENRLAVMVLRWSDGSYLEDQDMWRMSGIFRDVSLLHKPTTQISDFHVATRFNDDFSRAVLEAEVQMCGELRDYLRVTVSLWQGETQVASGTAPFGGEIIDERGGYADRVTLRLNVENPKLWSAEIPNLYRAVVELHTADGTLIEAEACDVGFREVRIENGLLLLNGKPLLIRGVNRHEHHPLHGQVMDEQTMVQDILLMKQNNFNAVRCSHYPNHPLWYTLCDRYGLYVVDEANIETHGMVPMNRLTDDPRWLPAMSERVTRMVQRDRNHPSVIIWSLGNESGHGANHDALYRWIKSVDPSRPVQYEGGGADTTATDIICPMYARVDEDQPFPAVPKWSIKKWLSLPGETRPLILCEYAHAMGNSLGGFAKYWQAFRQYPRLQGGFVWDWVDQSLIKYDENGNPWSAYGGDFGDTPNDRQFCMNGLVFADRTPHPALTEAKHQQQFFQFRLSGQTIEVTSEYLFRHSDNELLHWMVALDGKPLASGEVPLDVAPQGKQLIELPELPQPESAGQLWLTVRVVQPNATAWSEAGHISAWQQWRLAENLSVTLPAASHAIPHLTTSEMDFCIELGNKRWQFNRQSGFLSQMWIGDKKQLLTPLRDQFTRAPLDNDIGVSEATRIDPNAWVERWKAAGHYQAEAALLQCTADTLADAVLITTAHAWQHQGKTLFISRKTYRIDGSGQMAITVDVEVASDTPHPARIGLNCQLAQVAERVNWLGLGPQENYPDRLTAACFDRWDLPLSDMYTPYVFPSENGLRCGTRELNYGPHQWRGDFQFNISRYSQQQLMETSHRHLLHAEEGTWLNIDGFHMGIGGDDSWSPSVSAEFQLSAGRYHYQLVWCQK

COc1ccc2c(OC)cc(=O)n(C)c2c1
inactive: IC50 [1] > 79.4 µM | IC50 [2] > 79.4 µM | IC50 [3] > 79.4 µM

Nc1cc2nc3ccccc3oc-2cc1=O
active: EC50 [4] 64.1 µM | EC50 [5] 74.5 µM | EC50 [6] 72.1 µM

COc1cccc2sc(Nc3nc(-c4ccccn4)cs3)nc12
inconclusive: EC50 [12] 17.5 µM | EC50 (BJ [18]) 12.3 µM | EC50 (BJ [21]) 8.02 µM
active: EC50 [7] 0.126 µM | IC50 [8] 6.04 µM | EC50 [9] 2.23 µM | AC50 (INS1) 1.17 µM | EC50 (cells [11]) 6.91 µM | EC50 (BJ [13]) 12.2 µM | EC50 (cells [14]) 64.5 µM | IC50 [16] 1.4 µM | EC50 [19] 84.1 µM | IC50 [20] 1.62 µM | IC50 (Caspase-3) 31.7 µM | IC50 [22] 4.38 µM
inactive: IC50 [10] > 100 µM | IC50 [15] > 32 µM | EC50 (Mu-type opioid receptor) > 32 µM | EC50 [23] > 32 µM | EC50 (Beta-galactosidase) > 31.5 µM
> 32 µM: IC50 [17]
